Laboratory results published in patent publication US20060182771A1, “Formulations for ocular treatment” (priority 2005, published 2006).

Assay: Concentration of rapamycin in the vitreous of rabbit eyes after intravitreal injection of the self-emulsifying formulation (LCMS)
Type: in vivo, New Zealand white rabbits
Details: full vitreous homogenized, average of four eyes
Description: 50 μl of the formulation described in Example 1 were injected into the vitreous of the eye of New Zealand white rabbits. The full vitreous, which included the area into which the self-emulsifying formulation was injected, was homogenized and analyzed at 1, 5, 24, 72 and 168 hours for the concentration of rapamycin remaining therein. The average concentration of the vitreous was calculated by dividing the mass of rapamycin measured by the volume of vitreous analyzed. The analysis was by liquid chromatography mass spectroscopy (LCMS). Each timepoint represents the average of two eyes of each of two rabbits (four eyes at each timepoint).
The average concentration of rapamycin at 1, 5, 24, 72 and 168 hours was about 347, about 401, about 273, about 18, and about 1 μg/μl, respectively.

average concentration of rapamycin in the vitreous (1 hour after injection of 50 μl of the Example 1 formulation into the vitreous): about 347 μg/μl
average concentration of rapamycin in the vitreous (5 hours after injection of 50 μl of the Example 1 formulation into the vitreous): about 401 μg/μl
average concentration of rapamycin in the vitreous (24 hours after injection of 50 μl of the Example 1 formulation into the vitreous): about 273 μg/μl
average concentration of rapamycin in the vitreous (72 hours after injection of 50 μl of the Example 1 formulation into the vitreous): about 18 μg/μl
concentration at 168 h (New Zealand white, rabbit, vitreous (full vitreous homogenate), other: intravitreal injection, 168 hours after injection of 50 μl of the Example 1 formulation into the vitreous): ~1000 µg/mL
SMILES: CO[C@H]1C[C@@H]2CC[C@@H](C)[C@@](O)(O2)C(=O)C(=O)N2CCCC[C@H]2C(=O)O[C@H]([C@H](C)C[C@@H]2CC[C@@H](O)[C@H](OC)C2)CC(=O)[C@H](C)/C=C(\C)[C@@H](O)[C@@H](OC)C(=O)[C@H](C)C[C@H](C)/C=C/C=C/C=C/1C [rapamycin]
